The test system of series [1] is intracellular forms of Tulahuen strain. Further details: method as in Araujo-Lima et al. 2018 [44]. The settings on record: ref Araujo-Lima et al. 2018 [44]; read-out: EC50 against intracellular forms of Tulahuen strain; cited from earlier work.
Series [2] can be described thus: Cytotoxicity, MTT method, HepG2. It counts as cell-based. The settings on record: human, HepG2 cells, read-out: LC50 median lethal concentration HepG2. On the procedure:
(§1) Cytotoxicity of UBMC-4 was tested in HepG2, CaCo2, and huMDM cell lines according to the effect on cell growth determined by the MTT microenzimatic method, as described by others. Briefly, 2.0 × 10^4 U-937 and huMDM or 2.5 × 10^4 HepG2 and CaCo2 cells were dispensed in 200 µL into each well of a 96-well tissue culture plate containing the corresponding culture medium. Then, 100 µL/well of each compound at a concentration of […] were added and plates were incubated at 37 °C, 5% CO2. After 72 h of incubation, 20 μL of MTT (Sigma-Aldrich, St Louis, MO, USA) were added to each well and plates were incubated for 3 h at 37 °C, 5% CO2. […] The concentration of formazan was determined at 570 nm in a spectrophotometer (Varioskan Flash Multimode Reader, Thermo Scientific, Waltham, MA, USA). […] Cytotoxicity was determined according to the percentages of viability and cell growth inhibition obtained for each compound, bz, doxorubicin, or medium alone. Non-specific absorbance was corrected by subtracting the OD of the blank (culture medium). Percentages of mortality were calculated using equation, as follows: % mortality = 100 − [(O.D. of treated cells)/(O.D. of non-treated cells)] × 100. The half maximal effective concentration (EC50) was calculated by the linear regression model Probit using Graphpad Prism software.
On the technique in general: Tetrazolium assays rely on reduction of a dye to a coloured formazan, in cell work by metabolically active cells.

Series [3] has as its system T. cruzi Tulahuen strain amastigotes. The series can be described thus: Trypanocidal activity in intracellular amastigotes (β-galactosidase, U937 macrophages). It counts as cell-based, Trypanosoma cruzi. On the procedure: To obtain intracellular amastigotes, 2.5 × 10^6 U937 differentiated macrophage cells were infected with T. cruzi epimastigotes (Tulahuen strain producing β-galactosidase, 24 h of growing) in a 5:1 parasite/cell ratio. To calculate EC50, 100 μL of UBMC-4 were added at four serial dilutions ([…]) to each well, and benznidazole (bz) was added at an initial concentration of 20 µg/mL and 6 serial 2-fold dilutions were used to determine its EC50 as a control of the effectiveness of the experiment, in addition to the control of the viability of the parasites (cells without drug treatment), from the blank of the culture medium (medium without cells), in duplicate. The cells were incubated for 72 h at 37 °C with 5% of CO2. All medium was removed and 100 µL of substrate for β-galactosidase diluted in PBS (chlorophenol β-d-galactopyranoside-CPRG network; Sigma-Aldrich, St Louis, MO, USA, at 100 mM and 0.1% Nonidet P-40) was added to each well and incubated at 37 °C for 3 h. The amount of chlorophenol red released was read at 570 nm in a spectrophotometer (Varioskan TM). Infected cells were used as negative control while infected cells treated with benznidazole were used as a positive control (trypanocidal activity) for the assay. RPMI-1640 medium was used as a negative control. Non-specific absorbance was corrected by subtracting the OD of the blank sample. Determinations were done in triplicate in at least two independent experiments.
The trypanocidal activity was determined based on the percentage of decrease of amastigotes determined using equation, as follows: % reduction of infection = 100 − (O.D. of treated infected cells)/(O.D. of non-treated infected cells) × 100. The half maximal effective concentration (EC50) was calculated by the linear regression model Probit using Graphpad Prism software.

The nature of series [4]: Cytotoxicity, MTT method, CaCo2. The settings on record: human, Caco-2, read-out: LC50 median lethal concentration CaCo2. The format is cell-based. On the procedure: as §1
A short description of series [5]: Cytotoxicity, MTT method, huMDM. It counts as cell-based. Conditions: human, monocyte-derived macrophages (huMDM), read-out: LC50 median lethal concentration huMDM. On the procedure: as §1
The subject of another series is T. cruzi trypomastigotes. The series can be described thus: Flow cytometry of apoptosis-like markers in trypomastigotes. The format is cell-based, Trypanosoma cruzi. The settings on record: 10 µM. The protocol:
Apoptosis-like markers were analyzed by triple staining using 3,3′-dihexyloxacarbocyanine (DiOC6), propidium iodide (PI), and Hoechst from Thermo Fisher Scientific to determine the change of mitochondrial membrane potential (ΔΨm), cell membrane damage, and impairment of cell cycle, respectively. All readings were performed on a BD FACSCanto II 4/2/2 Sys IVD flow cytometer, and data obtained were analyzed using the FlowJo7.6.2 software. Differences between treatments were determined by a two-way ANOVA for multiple comparisons with 95% significance using GraphPad Prism 8. In all cases, 20 µL of parasites (5 × 10^6/mL) were stained per treatment with 300 µL of Hanks’ balanced saline solution (HBSS) and 10 µL of the staining mix containing […], 0.5 µL of 70 nM DiOC6, and 0.5 µL of 10 mg/mL Hoechst. Subsequently, parasites were incubated at room temperature for 15 min until reading.
The same markers mentioned above were used for T. cruzi trypomastigotes. A total of 1 × 10^6 trypomastigotes were centrifuged at 1800 RCF for 5 min to remove the culture medium. Parasites were cultured at […] in PBS or 10% FBS-supplemented DMEM with or without 10 µM UBMC-4, 10 µM chloroquine, and 10 µM UBMC-4/chloroquine for 2 h and 5 h. All experiments were compared to a culture setup using bz as control compound. Three biological replicates and three experimental replicates were applied to data collected at each time point for experimental conduction of every portion of the study. In all cases, ANOVA was applied for multiple comparisons after determining that data were normal.
Background: In flow cytometry, cells or beads pass a laser one at a time.

We go through two molecules from publication PMC9229894, “In Silico, In Vitro, and Pharmacokinetic Studies of UBMC-4, a Potential Novel Compound for Treating against Trypanosoma cruzi” (Pathogens, 2022).

As to `O=C(Cn1ccnc1[N+](=O)[O-])NCc1ccccc1` [Benznidazole, benznidazole, reference compound], the EC50 was 1800 ± 700 nM in series [1] and 1160 ± 30 nM in series [3] (Trypanosoma cruzi, TULAHUEN, U-937, 72 h, read-out: EC50 half maximal effective concentration for T. cruzi amastigotes). For the same molecule, the CC50 at 72 h in series [2], in series [4] and in series [5] was above 760000 nM each time. Also, the “selectivity index (SI) between huMDM and T. cruzi amastigotes” value in series [3] (LC50 huMDM / EC50 amastigotes) is recorded as above 655.
Regarding `CCN(CC)CCCC(C)Nc1ccnc2cc(Cl)ccc12` (centres unmarked) [chloroquine, reference compound], the “mitochondrial membrane potential change” value is “no alteration in the mitochondrial membrane potential” in the series on T. cruzi trypomastigotes (normal nutrition conditions) and “hyperpolarization continued just as in the untreated controls” in the series with T. cruzi trypomastigotes (nutritional stress conditions).
